ChEMBL document CHEMBL4725447, “De-risking Drug Discovery of Intracellular Targeting Peptides: Screening Strategies to Eliminate False-Positive Hits” (ACS Med Chem Lett, 2020)
Values belong to the compound of their own block, whether it stands above or below them. The source made the active and inactive calls. The rule behind the calls is not given here. Where a SMILES comes first, the peptide text is derived from it. Bridges are numbered along the chain shown (N, C = ends). [ ]: non-standard residue; d: D form. Phe(4-F) = N[C@@H](Cc1ccc(F)cc1)C(=O)O; d2Nal = N[C@H](Cc1ccc2ccccc2c1)C(=O)O; S5 = C=CCCC[C@](C)(N)C(=O)O

Legend:
GTPase KRas [1] = biological target: T1, GTPase KRas (Homo sapiens, UniProt P01116); assay: Inhibition of KRAS in human U2OS cells assessed as inhibition in phosphorylation of ERK at 20 uM incubated for 15 mins by Western blot analysis; assay type: cell-based
Target sequence in this assay (P01116 whole entry, looked up): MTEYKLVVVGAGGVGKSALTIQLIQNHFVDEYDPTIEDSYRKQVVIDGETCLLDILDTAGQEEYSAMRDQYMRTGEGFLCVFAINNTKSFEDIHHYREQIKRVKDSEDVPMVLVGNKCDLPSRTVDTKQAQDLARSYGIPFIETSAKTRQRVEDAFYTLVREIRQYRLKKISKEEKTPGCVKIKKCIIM

U2OS = assay: Antiproliferation activity against human U2OS cells assessed as measuring ATP content at > 20 uM measured after 72 hrs by CellTiter-Glo analysis; assay type: functional, cell-based; settings: dose microM >20, time 72.0 hrs
[2] = test system: GTPase KRas (Homo sapiens), P01116 [G12V]; assay: Binding affinity to KRAS G12V mutant (unknown origin) by isothermal titration calorimetry
[3] = Aggregation property of peptides assessed as stable aggregates at 10 uM by dynamic light scattering analysis; assay type: physicochemical
[4] = test system: GTPase KRas (Homo sapiens), P01116 [G12D]; assay: Binding affinity to KRAS G12D mutant (unknown origin) upto 1 uM by surface plasmon resonance analysis; settings: dose microM <=1
[5] = biological target: E3 ubiquitin-protein ligase Mdm2 (Homo sapiens) (UniProt Q00987); assay: Binding affinity to MDM2 (unknown origin) upto 1 uM by surface plasmon resonance analysis; settings: dose microM <=1
[6] = biological target: Eukaryotic translation initiation factor 4E (Homo sapiens) (UniProt P06730); assay: Binding affinity to eIF4E (unknown origin) upto 1 uM by surface plasmon resonance analysis
[7] = test system: GTPase KRas (Homo sapiens), P01116 [G12D]; assay: Binding affinity to KRAS G12D mutant (unknown origin) by isothermal titration calorimetry
HCT-116 [8] = assay: Cytotoxicity against human HCT116 cells assessed as effect on cell membrane preincubated overnight measured after 4 hrs post stimulation by LDH release assay; assay type: cell-based
A549 = assay: Antiproliferation activity against human A549 cells assessed as measuring ATP content at > 20 uM measured after 72 hrs by CellTiter-Glo analysis; assay type: functional, cell-based; settings: dose microM >20, time 72.0 hrs
[9] = biological target: E3 ubiquitin-protein ligase Mdm2 (Homo sapiens) (UniProt Q00987); assay: Binding affinity to MDM2 (unknown origin) in presence of FAM-labelled peptides at 1 uM by surface plasmon resonance analysis
[10] = biological target: Eukaryotic translation initiation factor 4E (Homo sapiens) (UniProt P06730); assay: Binding affinity to eIF4E (unknown origin) in presence of Fam-labelled peptides at 1 uM by surface plasmon resonance analysis
HCT-116 [11] = assay: Cytotoxicity against human HCT116 cells assessed as effect on cell membrane preincubated overnight measured after 4 hrs post stimulation by LDH release assay relative to control; assay type: cell-based; settings: hct-116, 4 h
[12] = test system: GTPase KRas (Homo sapiens), P01116 [G12D]; assay: Binding affinity to KRAS G12D mutant (unknown origin) in presence of FAM-labelled peptide at 1 uM by surface plasmon resonance analysis
[13] = biological target: Eukaryotic translation initiation factor 4E (Homo sapiens) (UniProt P06730); assay: Binding affinity to eIF4E (unknown origin) in presence of peptides at 300 nM by surface plasmon resonance analysis
[14] = test system: GTPase KRas (Homo sapiens), P01116 [G12D]; assay: (§1) Binding affinity to KRAS G12D mutant (unknown origin) using FAM-labelled peptide as substrate in absence of Tween20 by fluorescence polarization assay
[15] = biological target: E3 ubiquitin-protein ligase Mdm2 (Homo sapiens) (UniProt Q00987); assay: Binding affinity to MDM2 (unknown origin) using FAM-labelled peptide as substrate in absence of Tween20 by fluorescence polarization assay
[16] = biological target: Eukaryotic translation initiation factor 4E (Homo sapiens) (UniProt P06730); assay: Binding affinity to eIF4E (unknown origin) using FAM-labelled peptide as substrate in absence of Tween20 by fluorescence polarization assay
[17] = Aggregation property of FAM-labelled peptides assessed as diameter of aggregate size at 10 uM by dynamic light scattering analysis; assay type: physicochemical
[18] = biological target: E3 ubiquitin-protein ligase Mdm2 (Homo sapiens) (UniProt Q00987); assay: Binding affinity to MDM2 (unknown origin) using FAM-labelled peptide as substrate in presence of Tween20 by fluorescence polarization assay
[19] = biological target: Eukaryotic translation initiation factor 4E (Homo sapiens) (UniProt P06730); assay: Binding affinity to eIF4E (unknown origin) using FAM-labelled peptide as substrate in presence of Tween20 by fluorescence polarization assay
GTPase KRas [20] = biological target: T1, GTPase KRas; assay: Binding affinity to wild type KRAS (unknown origin) using FAM-labelled peptide as substrate in absence of Tween20 by fluorescence polarization assay
Target sequence in this assay (P01116 whole entry): as the sequence (P01116 whole entry, looked up) above

GTPase KRas [21] = biological target: GTPase KRas (Homo sapiens, UniProt P01116, G12D); assay: as §1
Homo sapiens = species on record: Homo sapiens; assay: Binding affinity to KRAS Q61H mutant (unknown origin) using FAM-labelled peptide as substrate in presence of Tween20 by fluorescence polarization assay
GTPase KRas [22] = biological target: T1, GTPase KRas; assay: Binding affinity to wild type KRAS (unknown origin) using FAM-labelled peptide as substrate in presence of Tween20 by fluorescence polarization assay
Target sequence in this assay (P01116 whole entry, looked up): as above

[23] = test system: GTPase KRas (Homo sapiens), P01116 [G12D]; assay: Binding affinity to KRAS G12D mutant (unknown origin) assessed as change in melting temperature by SYPRO orange dye based thermal shift assay

Chain of E3 ubiquitin-protein ligase Mdm2 (Homo sapiens) (Q00987 whole entry, looked up): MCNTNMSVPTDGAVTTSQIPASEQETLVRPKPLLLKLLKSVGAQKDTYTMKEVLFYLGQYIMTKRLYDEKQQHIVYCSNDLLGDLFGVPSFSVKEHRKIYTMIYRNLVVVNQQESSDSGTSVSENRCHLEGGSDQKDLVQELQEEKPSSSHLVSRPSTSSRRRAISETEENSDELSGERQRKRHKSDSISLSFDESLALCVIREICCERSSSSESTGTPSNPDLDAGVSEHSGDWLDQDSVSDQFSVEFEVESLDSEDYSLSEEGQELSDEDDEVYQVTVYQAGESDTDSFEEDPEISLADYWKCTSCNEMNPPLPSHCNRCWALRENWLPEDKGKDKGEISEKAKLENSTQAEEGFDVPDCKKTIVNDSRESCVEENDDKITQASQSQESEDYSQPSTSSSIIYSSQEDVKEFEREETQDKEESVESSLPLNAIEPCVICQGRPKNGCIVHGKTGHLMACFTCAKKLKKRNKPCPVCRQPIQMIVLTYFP
Chain of GTPase KRas (Homo sapiens), P01116 [G12D] (P01116 whole entry G12D, looked up): as the sequence (P01116 whole entry, looked up) above, with G12D counted along it
Chain of Eukaryotic translation initiation factor 4E (Homo sapiens) (P06730 whole entry): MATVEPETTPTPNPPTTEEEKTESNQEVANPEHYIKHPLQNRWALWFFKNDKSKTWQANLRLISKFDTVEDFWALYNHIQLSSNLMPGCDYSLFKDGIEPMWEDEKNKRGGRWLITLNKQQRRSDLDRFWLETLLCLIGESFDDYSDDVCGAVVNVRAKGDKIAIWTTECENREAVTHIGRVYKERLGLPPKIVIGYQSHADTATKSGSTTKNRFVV
Chain of GTPase KRas (Homo sapiens), P01116 [G12V] (P01116 whole entry G12V): as the sequence (P01116 whole entry, looked up) above, with G12V counted along it
Chain of GTPase KRas (Homo sapiens, UniProt P01116, G12D) (P01116 whole entry G12D): as the sequence (P01116 whole entry, looked up) above, with G12D counted along it

SMILES: C[C@H]1NC(=O)[C@H](CCCNC(=N)N)NC(=O)[C@H](Cc2c[nH]c3ccccc23)NC(=O)[C@H](CCCNC(=N)N)NC(=O)[C@H](Cc2ccc(F)cc2)NC(=O)[C@H](CCCNC(=N)N)NC(=O)[C@@H](Cc2ccc3ccccc3c2)NC(=O)[C@H](CCCNC(=N)N)NC(=O)[C@H](CCCNC(=N)N)NC(=O)[C@H](CCC(N)=O)NC1=O (cyclo(RR[d2Nal]R[Phe(4-F)]RWR[dA]Q))
Activity (HCT-116 [11]): < 10%

SMILES: CC(=O)N[C@@H](CC(C)C)C(=O)N[C@H](C(=O)N[C@@H](Cc1ccccc1)C(=O)N[C@]1(C)CCCCCC/C=C/CCC[C@@](C)(C(=O)N[C@@H](CO)C(=O)N[C@@H](C)C(=O)N[C@@H](C)C(N)=O)NC(=O)[C@H](CC2CCC2)NC(=O)[C@H](CC(C)C)NC(=O)[C@H](CCC(N)=O)NC(=O)[C@H](Cc2c[nH]c3ccccc23)NC(=O)[C@H](Cc2ccc(O)cc2)NC(=O)[C@H](CCC(=O)O)NC1=O)[C@@H](C)O
Activity (HCT-116 [11]): < 10%

SMILES: C=CCCC[C@](C)(NC(=O)[C@H](CC(N)=O)NC(=O)[C@@H](NC(=O)[C@H](CC(C)C)NC(=O)[C@](C)(CCCC=C)NC(=O)[C@@H](NC(=O)CNC(=O)[C@H](Cc1ccccc1)NC(=O)[C@H](Cc1ccccc1)NC(=O)[C@H](CCCNC(=N)N)NC(=O)[C@H](CCCNC(=N)N)NC(C)=O)[C@@H](C)CC)[C@@H](C)O)C(=O)N[C@@H](CC(C)C)C(=O)N[C@@H](CCCCN)C(=O)N[C@H](C(=O)N[C@@H](CCC(=O)O)C(=O)N[C@@H](CCC(=O)O)C(=O)NCC(=O)N[C@@H](CC(N)=O)C(N)=O)[C@@H](C)O
EC50 (HCT-116 [8]): 8 µM

SMILES: CC[C@H](C)[C@H](NC(=O)CNC(=O)[C@H](Cc1ccccc1)NC(=O)[C@H](Cc1ccccc1)NC(=O)[C@H](CCCNC(=N)N)NC(=O)[C@H](CCCNC(=N)N)NC(C)=O)C(=O)N[C@@]1(C)CCC/C=C/CCC[C@@](C)(C(=O)N[C@@H](CC(C)C)C(=O)N[C@@H](CCCCN)C(=O)N[C@H](C(=O)N[C@@H](CCC(=O)O)C(=O)N[C@@H](CCC(=O)O)C(=O)NCC(=O)N[C@@H](CC(N)=O)C(N)=O)[C@@H](C)O)NC(=O)[C@H](CC(N)=O)NC(=O)[C@H]([C@@H](C)O)NC(=O)[C@H](CC(C)C)NC1=O
inhibition (GTPase KRas [1]): Active | Activity (U2OS): Active | Kd (GTPase KRas [20]): 0.43 µM | Kd (GTPase KRas [21]): 0.43 µM | Activity [15]: Active | Activity [16]: Active | Activity [3]: Not Active | Activity [17]: 350 nm | Activity [4]: inactive | Activity [5]: inactive | Activity [6]: inactive | Activity [7]: inactive | EC50 (HCT-116 [8]): 10 µM | Activity (A549): Active | Activity (Homo sapiens): inactive | Activity (GTPase KRas [22]): inactive | Activity [12]: inactive | Activity [9]: Active | Activity [10]: Active

SMILES: CC(=O)NCCCC[C@H](N)C(=O)N[C@@H](CCCCN)C(=O)N[C@@H](CCCNC(=N)N)C(=O)N[C@@H](Cc1ccc(O)cc1)C(=O)N[C@@H](CO)C(=O)N[C@@H](CCCNC(=N)N)C(=O)N[C@@]1(C)CCC/C=C/CCC[C@@](C)(C(=O)N[C@@H](Cc2ccccc2)C(N)=O)NC(=O)[C@H](C(C)C)NC(=O)[C@H](C(C)C)NC(=O)[C@H](Cc2ccccc2)NC1=O (H-K(Ac)KRYSR[S5]FVV[S5]F-NH2; staple (E) 7-11)
EC50 (HCT-116 [8]): 20 µM

Continued, in another order:

Activity (GTPase KRas [1]): inactive | Activity [2]: inactive | Activity [3]: Not Active | Activity [4]: inactive | Activity [5]: inactive | Activity [6]: inactive | Activity [7]: inactive | Activity [9]: Active | Activity [10]: Active
SMILES: CCCC[C@H]1NC(=O)[C@H](Cc2ccc(F)cc2)NC(=O)[C@H](CCCNC(=N)N)NC(=O)[C@@H](Cc2ccc3ccccc3c2)NC(=O)[C@H](CCCNC(=N)N)NC(=O)[C@H](CCCNC(=N)N)NC(=O)[C@H](CCCNC(=N)N)NC(=O)[C@H](C)NC(=O)[C@H]([C@@H](C)O)NC(=O)[C@@H](Cc2c[nH]c3ccccc23)NC(=O)[C@@H](CCC(N)=O)NC1=O
Activity (U2OS): Active | EC50 (HCT-116 [8]): 30 µM | Activity (A549): Active

Activity [12]: inactive | Activity [13]: Active
SMILES: CC(=O)N[C@@H](CCCCN)C(=O)N[C@@H](CCCCN)C(=O)N[C@@H](CCCNC(=N)N)C(=O)N[C@@H](Cc1ccc(O)cc1)C(=O)N[C@@H](CO)C(=O)N[C@@H](CCCNC(=N)N)C(=O)NC(C)(C)C(=O)N[C@@H](CCC(N)=O)C(=O)N[C@@H](CC(C)C)C(=O)N[C@@H](CC(C)C)C(=O)NC(C)(C)C(=O)N[C@@H](CC(C)C)C(N)=O
Activity (HCT-116 [11]): < 10%

Activity [14]: Active | Activity [15]: Active | Activity [16]: Active | Activity [3]: Not Active | Activity [17]: 1200 nm | Activity [18]: inactive | Activity [19]: inactive
SMILES: CC[C@H](C)[C@H](NC(=O)[C@]1(C)CCC/C=C/CCC[C@](C)(NC(=O)CNC(=O)[C@H](Cc2ccccc2)NC(=O)[C@H](Cc2ccccc2)NC(=O)[C@H](CCCNC(=N)N)NC(=O)[C@H](CCCNC(=N)N)NC(C)=O)C(=O)N[C@@H](Cc2ccc(O)cc2)C(=O)N[C@@H](CC(C)C)C(=O)N[C@@H]([C@@H](C)O)C(=O)N1)C(=O)N[C@@H](CC(C)C)C(=O)N[C@@H](CCCCN)C(=O)N[C@H](C(=O)N[C@@H](CCC(=O)O)C(=O)N[C@@H](CCC(=O)O)C(=O)NCC(=O)N[C@@H](CC(N)=O)C(N)=O)[C@@H](C)O
Activity (HCT-116 [11]): < 10%

Activity [12]: inactive
SMILES: CC(=O)N[C@@H](CC(C)C)C(=O)N[C@H](C(=O)N[C@@H](Cc1ccccc1)C(=O)N[C@]1(C)CCCCCC/C=C/CCC[C@@](C)(C(=O)N[C@H](CO)C(=O)N[C@H](C)C(=O)N[C@H](C)C(N)=O)NC(=O)[C@@H](CC2CCC2)NC(=O)[C@H](CC(C)C)NC(=O)[C@H](CCC(N)=O)NC(=O)[C@H](Cc2c[nH]c3ccccc23)NC(=O)[C@H](Cc2ccc(O)cc2)NC(=O)[C@H](CCC(=O)O)NC1=O)[C@@H](C)O

ΔTm [23]: -5.9 °C
SMILES: CCCC[C@H]1NC(=O)[C@@H](Cc2ccc(F)cc2)NC(=O)[C@H](CCCNC(=N)N)NC(=O)[C@@H](Cc2ccc3ccccc3c2)NC(=O)[C@H](CCCNC(=N)N)NC(=O)[C@H](CCCNC(=N)N)NC(=O)[C@@H](CCCNC(=N)N)NC(=O)[C@@H](C)NC(=O)[C@H](C(C)(C)C)NC(=O)[C@H](Cc2c[nH]c3ccccc23)NC(=O)[C@H](CCC(N)=O)NC1=O
